Paper PMC6635573, “A live cell NanoBRET binding assay allows the study of ligand-binding kinetics to the adenosine A3 receptor” (Purinergic Signalling, 2019)

Legend:
human A3AR [1] = target: T1, human A3AR (Homo sapiens, UniProt P0DMS8); assay: NanoBRET saturation binding of fluorescent antagonists in live Nluc-A3AR HEK293 cells
T1 sequence (P0DMS8 1-318): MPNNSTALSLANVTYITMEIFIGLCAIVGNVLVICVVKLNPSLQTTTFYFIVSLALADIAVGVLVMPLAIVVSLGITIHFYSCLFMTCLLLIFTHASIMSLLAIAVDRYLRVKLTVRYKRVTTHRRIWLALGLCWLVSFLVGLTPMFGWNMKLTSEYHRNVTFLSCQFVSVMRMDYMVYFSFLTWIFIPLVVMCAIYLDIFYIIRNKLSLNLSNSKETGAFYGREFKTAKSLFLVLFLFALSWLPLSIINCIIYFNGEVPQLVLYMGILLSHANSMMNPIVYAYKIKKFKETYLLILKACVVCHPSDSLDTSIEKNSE
Procedure: (§4) For saturation and competition binding assays, the required concentration of fluorescent ligand and competing ligand was added simultaneously and incubated for 1 h (for AV039) or 3 h (for XAC-S-ser-S-tyr-X-BY630) at 37 °C (no CO2). After 1 h, 10 μM furimazine was added to each well and the plate incubated for 5 min at 37 °C before reading. […] For association kinetic experiments, following the furimazine incubation, the required concentration of fluorescent ligand in the presence or absence of 10 μM MRS1220 was added simultaneously and the plate read immediately once per minute for up to 3 h at 37 °C. For kinetic competition association assays, after furimazine incubation, either XAC-S-ser-S-tyr-X-BY630 (20 nM) or AV039 (40 nM) were added simultaneously with the required concentration of unlabelled ligand or 10 μM MRS1220 to determine non-specific binding and read once per minute for the indicated times at 37 °C. For all NanoBRET experiments, fluorescence and luminescence were read using a PHERAstar FS plate reader (BMG Labtech, Ortenberg, Germany). Filtered light emissions were measured at 460 nm (80 nm band pass) and at > 610 nm (long pass) for the BY630 labelled ligands and at 450 nm (80 nm band pass) and > 550 nm (long pass) for the BYFL labelled ligand. The raw NanoBRET ratio was calculated by dividing the fluorescence emission (610 or 550 nm) by the luminescence emission (460 or 450 nm).
NanoBRET total and non-specific saturation binding curves were fitted simultaneously using the following equation: BRET ratio=Bmax.B/B+KD+M.B+C where Bmax is the maximal specific binding achieved, [B] is the concentration of fluorescent ligand, KD is the equilibrium dissociation constant, M is the slope of the non-specific binding component and C is the intercept with the Y-axis.
Initially, we determined the affinity of each of these fluorescent antagonists at NanoLuc tagged A3AR (Nluc-A3AR) in the NanoBRET assay.

human A3AR [2] = target: T1, human A3AR; assay: [3H]PSB-11 radioligand equilibrium displacement in Nluc-A3AR HEK293 membranes; type: binding; parameters: expressed in transfected cells; details: read-out: Equilibrium competition pKi (converted)
Procedure: Prior to all experiments, membranes from HEK293 membranes expressing human Nluc-A3AR were diluted to 20 μg/well in a total volume of 100 μL/well assay buffer (50 mM Tris-HCl, 5 mM MgCl2, supplemented with 0.01% CHAPS and 1 mM EDTA, pH 7.4) and homogenised using an IKA T10 Ultra-Turrax disperser in 3 × 5 s bursts at 15,000 rpm. For equilibrium displacement assays, membranes were placed in 96-well microplates at 10 °C and the required concentration of competing agonist was added in the presence of a final concentration of ~ 10 nM [^3H] […] For all experiments, incubation was terminated by rapid filtration performed on 96-well GF/B filter plates using a PerkinElmer Filtermate-harvester (PerkinElmer, Groningen, The Netherlands). […] In addition, the exact concentration of [^3H]

human A3AR [3] = target: T1, human A3AR; assay: [3H]PSB-11 radioligand competition association (Motulsky and Mahan) in Nluc-A3AR HEK293 membranes; type: binding; parameters: expressed in transfected cells; details: for Kd: read-out: Kinetics pKD (converted)
Procedure: (§1) Prior to all experiments, membranes from HEK293 membranes expressing human Nluc-A3AR were diluted to 20 μg/well in a total volume of 100 μL/well assay buffer (50 mM Tris-HCl, 5 mM MgCl2, supplemented with 0.01% CHAPS and 1 mM EDTA, pH 7.4) and homogenised using an IKA T10 Ultra-Turrax disperser in 3 × 5 s bursts at 15,000 rpm. For equilibrium displacement assays, membranes were placed in 96-well microplates at 10 °C and the required concentration of competing agonist was added in the presence of a final concentration of ~ 10 nM [^3H] […] For association assays, Nluc-A3AR HEK293 membranes were placed at 10 °C in 96-well microplates and the amount of radioligand bound to the receptor was measured at different time points during a total incubation of 120 min. For dissociation experiments, HEK293 membranes expressing human Nluc-A3AR were incubated for 120 min with ~ 10 nM [^3H] […] The competition association assays were initiated by the addition of Nluc-A3AR HEK293 membranes at different time points for a total of 240 min to a total volume of 100 μl/well of assay buffer at 10 °C with ~ 10 nM [^3H] […] For all experiments, incubation was terminated by rapid filtration performed on 96-well GF/B filter plates using a PerkinElmer Filtermate-harvester (PerkinElmer, Groningen, The Netherlands). After drying the filter plate at 50 °C for 30 min, the filter-bound radioactivity was determined by scintillation spectrometry using a 2450 MicroBeta^2 Plate Counter (PerkinElmer, Boston, MA). In addition, the exact concentration of [^3H]
(§2) The binding kinetics of unlabelled ligands was quantified using the competition association assay based on the theoretical framework by Motulsky and Mahan. NanoBRET and radioligand data were fitted into the competition association model using ‘kinetics of competitive binding’ to determine association and dissociation rate constants of the unlabelled compounds:
KA=k1L⋅10^−9+k2KB=k3I⋅10^−9+k4S=KA−KB^2+4⋅k1⋅k3⋅L⋅I⋅10^−18KF=0.5KA+KB+SKS=0.5KA+KB−SQ=Bmax⋅k1⋅L⋅10^−9/KF−KSY=Q⋅k4⋅KF−KS/KF⋅KS+k4−KF/KFe^−KF⋅X−k4−KS/KSe^−KS⋅X where k1 is the kon of the labelled ligand (M^−1 min^−1), k2 is the koff of the labelled ligand (min^−1), L is the concentration of the labelled ligand in nanomolar, I is the concentration of the unlabelled competitor (nM), X is the time (min) and Y is the specific binding of the labelled ligand (NanoBRET ratio or DPM).
(§3) k1 and k2 values were generated from association kinetic experiments. k3, k4 and Bmax were then calculated, where k3 represents the kon (M^−1 min^−1) of the unlabelled ligand, k4 stands for the koff (min^−1) of the unlabelled ligand and Bmax equals the total binding (NanoBRET ratio or DPM). The residence time (RT) was calculated as the reciprocal of the ligand dissociation rate constant as follows: RT=1/koff
This was borne out in the kinetics parameters obtained from fitting the data to the Motulsky and Mahan model (Table 2).

human A3AR [4] = target: T1, human A3AR; assay: NanoBRET association kinetics of fluorescent antagonists in live Nluc-A3AR HEK293 cells; details: for residence time: read-out: Kinetics RT (residence time); for koff: read-out: Kinetics koff; for kon: read-out: Kinetics kon
Procedure: as §4
For NanoBRET association kinetic data, non-specific binding was determined in wells with fluorescent ligand plus 10 μM MRS1220 and this was obtained for each concentration of fluorescent ligand at each time point. This was subsequently subtracted from total binding at the equivalent time point. The data were simultaneously fit to the following equations: Y=Ymax1−e^−kobst kon=kobs−koff/L where Ymax equals the level of binding at infinite time (t), kobs is the rate constant for the observed rate of association at a particular concentration of L, [L] is the ligand concentration in molar, koff is the dissociation rate constant of the ligand in per minute and kon is the association rate constant in per molar per minute. From this, the equilibrium dissociation constant (KD) is determined as follows: KD=koff/kon

human A3AR [5] = target: T1, human A3AR; assay: NanoBRET equilibrium competition binding with AV039 as probe in Nluc-A3AR HEK293 cells
Procedure: For saturation and competition binding assays, the required concentration of fluorescent ligand and competing ligand was added simultaneously and incubated for 1 h (for AV039) or 3 h (for XAC-S-ser-S-tyr-X-BY630) at 37 °C (no CO2). After 1 h, 10 μM furimazine was added to each well and the plate incubated for 5 min at 37 °C before reading. […] For association kinetic experiments, following the furimazine incubation, the required concentration of fluorescent ligand in the presence or absence of 10 μM MRS1220 was added simultaneously and the plate read immediately once per minute for up to 3 h at 37 °C. For kinetic competition association assays, after furimazine incubation, either XAC-S-ser-S-tyr-X-BY630 (20 nM) or AV039 (40 nM) were added simultaneously with the required concentration of unlabelled ligand or 10 μM MRS1220 to determine non-specific binding and read once per minute for the indicated times at 37 °C. For all NanoBRET experiments, fluorescence and luminescence were read using a PHERAstar FS plate reader (BMG Labtech, Ortenberg, Germany). Filtered light emissions were measured at 460 nm (80 nm band pass) and at > 610 nm (long pass) for the BY630 labelled ligands and at 450 nm (80 nm band pass) and > 550 nm (long pass) for the BYFL labelled ligand. […]

human A3AR [6] = target: T1, human A3AR; assay: NanoBRET kinetic competition association with AV039 as probe in Nluc-A3AR HEK293 cells; type: binding; parameters: expressed in transfected cells; details: for Kd: read-out: Kinetics pKD (probe AV039) (converted); for Kinetics RT (probe AV039): reciprocal of koff, NanoBRET competition association with 40 nM AV039, cells
Procedure: as §2, §3

human A3AR [7] = target: T1, human A3AR; assay: NanoBRET kinetic competition association with XAC-S-ser-S-tyr-X-BY630 as probe in Nluc-A3AR HEK293 cells; type: binding; parameters: expressed in transfected cells; details: for Kinetics RT (probe XAC-S-ser-S-tyr-X-BY630): reciprocal of koff, NanoBRET competition association with 20 nM XAC-S-ser-S-tyr-X-BY630, cells
Procedure: as §2
The residence time (RT) was calculated as the reciprocal of the ligand dissociation rate constant as follows: RT=1/koff

human A3AR [8] = target: T1, human A3AR; assay: NanoBRET equilibrium competition binding with XAC-S-ser-S-tyr-X-BY630 as probe in Nluc-A3AR HEK293 cells; parameters: expressed in transfected cells
human A3AR [9] = target: T1, human A3AR; assay: [3H]PSB-11 saturation binding (KD used for the Ki calculation); parameters: expressed in transfected cells; details: radioligand, saturation binding assay of this study, read-out: KD, equilibrium dissociation constant of the labelled ligand
human A3AR [10] = target: T1, human A3AR; assay: [3H]PSB-11 radioligand association and dissociation in Nluc-A3AR HEK293 membranes; type: binding; parameters: expressed in transfected cells; details: 10 °C
Procedure: as §1
To confirm the differences in the kinetics observed with AV039 and XAC-S-ser-S-tyr-X-BY630, radioligand equilibrium and kinetic binding assays in membranes from HEK293 cells stably expressing Nluc-A3AR were undertaken.

[11] = read-out: Kinetics koff (converted)
[12] = read-out: Kinetics kon (converted)
[13] = NanoBRET competition association with 40 nM AV039, Nluc-A3AR HEK293 cells, 37 °C
[14] = association and dissociation curves of 10 nM [3H]PSB-11, Nluc-A3AR HEK293 membranes

Compound	Kd (human A3AR [1])	Ki (human A3AR [2])	koff (human A3AR [3]; [11])	kon (human A3AR [3]; [12])	Kd (human A3AR [3])	Kd (human A3AR [4])	residence time (human A3AR [4])	koff (human A3AR [4])	kon (human A3AR [4])	Kinetics RT (probe AV039) (human A3AR [6]; 37 °C)	Kinetics RT (probe XAC-S-ser-S-tyr-X-BY630) (human A3AR [7]; 37 °C)	further results
COc1ccc(-n2nc3c(NC(=O)CCC(=O)NCCOCCOCCNC(=O)CCCCCNC(=O)COc4ccc(/C=C/C5=[N+]6C(=Cc7ccc(-c8cccs8)n7[B-]6(F)F)C=C5)cc4)nc4ccccc4n3c2=O)cc1 [AV039]	7.76 nM	22.4 nM	0.00127 s⁻¹	54500 M⁻¹ s⁻¹	23.4 nM	44.7 nM	6.8 ± 0.8 min	0.0025 s⁻¹	61200 M⁻¹ s⁻¹			
COc1cccc(Cn2c(=O)n(CC3CC3)c(=O)c3c2nc2cc(OC)ccn23)c1 [LUF7565]		1.02 nM			0.776 nM					72.9 ± 8.3 min	49.2 ± 6.7 min	Ki (human A3AR [5]): 11.7 nM; Kd (human A3AR [6]; [13]): 6.76 nM; koff (human A3AR [6]; read-out: Kinetics koff (probe AV039)): 0.00025 s⁻¹; kon (human A3AR [6]; read-out: Kinetics kon (probe AV039)): 44700 M⁻¹ s⁻¹; koff (human A3AR [3]; read-out: Kinetics koff): 0.000108 s⁻¹; kon (human A3AR [3]; read-out: Kinetics kon): 136000 M⁻¹ s⁻¹; Kd (human A3AR [7]): 13.5 nM; koff (human A3AR [7]; NanoBRET competition association with 20 nM XAC-S-ser-S-tyr-X-BY630, Nluc-A3AR HEK293 cells, 37 °C, read-out: Kinetics koff (probe XAC-S-ser-S-tyr-X-BY630) (converted)): 0.000367 s⁻¹; kon (human A3AR [7]; NanoBRET competition association with 20 nM XAC-S-ser-S-tyr-X-BY630, Nluc-A3AR HEK293 cells, 37 °C, read-out: Kinetics kon (probe XAC-S-ser-S-tyr-X-BY630) (converted)): 26800 M⁻¹ s⁻¹; Ki (human A3AR [8]): 100 nM
CC[C@@H]1CN2C(=O)N(C)c3nc(-c4ccccc4)[nH]c3C2=N1 [PSB-11]										6.6 ± 1.3 min	22.4 ± 6.1 min	
CCCn1c(=O)c2[nH]c(-c3ccc(OCC(=O)NCCNC(=O)[C@H](CO)NC(=O)[C@H](Cc4ccc(O)cc4)NC(=O)CCCCCNC(=O)COc4ccc(/C=C/C5=[N+]6C(=Cc7ccc(-c8cccs8)n7[B-]6(F)F)C=C5)cc4)cc3)nc2n(CCC)c1=O [XAC-S-ser-S-tyr-X-BY630]	3.09 nM	61.7 nM	3.83e-05 s⁻¹	2330 M⁻¹ s⁻¹	18.2 nM	2.69 nM	288 ± 62 min	7.17e-05 s⁻¹	27700 M⁻¹ s⁻¹			residence time (human A3AR [3]; read-out: RT (residence time)): > 450 min
CCCn1c(=O)c2[nH]c(-c3ccc(OCC(=O)NCCNC(=O)[C@H](CO)NC(=O)[C@H](Cc4ccc(O)cc4)NC(=O)CCCCCNC(=O)CCc4ccc5n4[B-](F)(F)[N+]4=C(C)C=C(C)C4=C5)cc3)nc2n(CCC)c1=O [XAC-S-ser-S-tyr-X-BYFL]	16.6 nM					17.8 nM	14.9 ± 1.1 min	0.00115 s⁻¹	65800 M⁻¹ s⁻¹			
COc1ccn2c(c1)nc1c2c(=O)[nH]c(=O)n1Cc1ccccc1 [compound 5, 1-Benzyl-8-methoxy-1H,3H-pyrido[2,1-f]purine-2,4-dione]		44.7 nM	0.0033 s⁻¹	110000 M⁻¹ s⁻¹	29.5 nM					1.1 ± 0.4 min	23.2 ± 3.6 min	Ki (human A3AR [5]): 89.1 nM; koff (human A3AR [6]; NanoBRET competition association with 40 nM AV039, Nluc-A3AR HEK293 cells, 37 °C, read-out: Kinetics koff (probe AV039) (converted)): 0.0235 s⁻¹; kon (human A3AR [6]; NanoBRET competition association with 40 nM AV039, Nluc-A3AR HEK293 cells, 37 °C, read-out: Kinetics kon (probe AV039) (converted)): 183000 M⁻¹ s⁻¹; Kd (human A3AR [6]; [13]): 123 nM; Kd (human A3AR [7]): 288 nM; koff (human A3AR [7]; read-out: Kinetics koff (probe XAC-S-ser-S-tyr-X-BY630)): 0.000783 s⁻¹; kon (human A3AR [7]; read-out: Kinetics kon (probe XAC-S-ser-S-tyr-X-BY630)): 2670 M⁻¹ s⁻¹; Ki (human A3AR [8]): 832 nM
[^3H]8-Ethyl-4-methyl-2-phenyl-(8R)-4,5,7,8-tetrahydro-1H-imidazo[2,1-i]-purin-5-one [[^3H]PSB-11]												Kd (human A3AR [9]): 9.9 nM; Kinetics kon (human A3AR [10]; [14]): 2.75 ± 0.52 × 10^6 M^−1 min^−1; Kinetics pKD (human A3AR [10]; [14]): 8.04 ± 0.08; Kinetics koff (human A3AR [10]; association and dissociation curves of 10 nM [3H]PSB-11, dissociation initiated with 10 μM PSB-11, membranes): 0.000383 ± 3.3e-05 s⁻¹; Kinetics RT (residence time) (human A3AR [10]; reciprocal of koff, 10 nM [3H]PSB-11, Nluc-A3AR HEK293 membranes): 44.6 ± 3.9 min
